# Experimental data: PMC8468039, “Development of New Meridianin/Leucettine-Derived Hybrid Small Molecules as Nanomolar Multi-Kinase Inhibitors with Antitumor Activity” (Biomedicines, 2021)
# Where “and” joins values, the source holds several entries; their conditions need not be identical. Identical values can stand only once.
# How the values were obtained:
# A498 = assay: NCI growth inhibition (SRB) assay; format: cell-based; details: Homo sapiens, A498, Renal Cancer, single dose 10 µM, 48 h, read-out: Percent Growth Inhibition (GI)
# Protocol: (§1) The antitumor assay was performed according to the protocol of the Drug Evaluation Branch, NCI, Bethesda. A 48 h drug exposure protocol was adopted, and sulforhodamine B (SRB) assay was utilized to assess the cell growth and viability, as reported earlier.
# (§2) The inhibition results of tumor cell growth by the newly synthesized compounds (5a–5g) are described in Table 4. The reported measurements have been performed at the NIH National Cancer Institute, USA by a standardized assay including a panel of 60 different tumor cell lines (Supplementary Data). The following cancer cell types were included in these assays: Leukemia, non-small cell lung cancer, colon cancer, CNS cancer, melanoma, ovarian cancer, renal cancer, prostate, and breast cancer. […] Additionally, the 3,4-dimethoxy substituted compound (5b) also suffered poor activity against the cancer cell lines.
# MCF7 = assay: NCI growth inhibition (SRB) assay; format: cell-based; details: Homo sapiens, MCF7, Breast Cancer, single dose 10 µM, 48 h, read-out: Percent Growth Inhibition (GI)
# Protocol: as §1, §2
# PC-3 = assay: NCI growth inhibition (SRB) assay; format: cell-based; details: Homo sapiens, PC-3, Prostate Cancer, single dose 10 µM, 48 h, read-out: Percent Growth Inhibition (GI)
# Protocol: as §1, §2
# IGROV1 = assay: NCI growth inhibition (SRB) assay; format: cell-based; details: Homo sapiens, IGROV-1, IGROV1, Ovarian Cancer, single dose 10 µM, 48 h, read-out: Percent Growth Inhibition (GI)
# Protocol: as §1, §2
# KM12 = assay: NCI growth inhibition (SRB) assay; format: cell-based; details: Homo sapiens, KM12, Colon Cancer, single dose 10 µM, 48 h, read-out: Percent Growth Inhibition (GI)
# Protocol: as §1, §2
# SF-539 = assay: NCI growth inhibition (SRB) assay; format: cell-based; details: Homo sapiens, SF-539, CNS Cancer, single dose 10 µM, 48 h, read-out: Percent Growth Inhibition (GI)
# Protocol: as §1, §2
# HL-60(TB) = assay: NCI growth inhibition (SRB) assay; format: cell-based; details: Homo sapiens, Leukemia, single dose 10 µM, 48 h, read-out: Percent Growth Inhibition (GI)
# Protocol: as §1, §2
# 786-0 = assay: NCI growth inhibition (SRB) assay; format: cell-based; details: Homo sapiens, 786-0, Renal Cancer, single dose 10 µM, 48 h, read-out: Percent Growth Inhibition (GI)
# Protocol: as §1, §2
# K-562 = assay: NCI growth inhibition (SRB) assay; format: cell-based; details: Homo sapiens, K562, K-562, Leukemia, single dose 10 µM, 48 h, read-out: Percent Growth Inhibition (GI)
# Protocol: as §1, §2
# ACHN = assay: NCI growth inhibition (SRB) assay; format: cell-based; details: Homo sapiens, Renal Cancer, single dose 10 µM, 48 h, read-out: Percent Growth Inhibition (GI)
# Protocol: as §1, §2
# RPMI-8226 = assay: NCI growth inhibition (SRB) assay; format: cell-based; details: Homo sapiens, RPMI-8226, Leukemia, single dose 10 µM, 48 h, read-out: Percent Growth Inhibition (GI)
# Protocol: as §1, §2
# SNB-75 = assay: NCI growth inhibition (SRB) assay; format: cell-based; details: Homo sapiens, SNB-75, CNS Cancer, single dose 10 µM, 48 h, read-out: Percent Growth Inhibition (GI)
# Protocol: as §1, §2
# HS 578T = assay: NCI growth inhibition (SRB) assay; format: cell-based; details: Homo sapiens, Breast Cancer, single dose 10 µM, 48 h, read-out: Percent Growth Inhibition (GI)
# Protocol: as §1, §2
# HT29 = assay: NCI growth inhibition (SRB) assay; format: cell-based; details: Homo sapiens, HT-29, HT29, Colon Cancer, single dose 10 µM, 48 h, read-out: Percent Growth Inhibition (GI)
# Protocol: as §1, §2
# SR = assay: NCI growth inhibition (SRB) assay; format: cell-based; details: 48 h, Leukemia, single dose 10 µM
# Protocol: as §1, §2
# T-47D = assay: NCI growth inhibition (SRB) assay; format: cell-based; details: Homo sapiens, T47D, Breast Cancer, single dose 10 µM, 48 h, read-out: Percent Growth Inhibition (GI)
# Protocol: as §1, §2
# HCT-15 = assay: NCI growth inhibition (SRB) assay; format: cell-based; details: Homo sapiens, HCT-15, Colon Cancer, single dose 10 µM, 48 h, read-out: Percent Growth Inhibition (GI)
# Protocol: as §1, §2
# COLO 205 = assay: NCI growth inhibition (SRB) assay; format: cell-based; details: Homo sapiens, COLO 205, Colon Cancer, single dose 10 µM, 48 h, read-out: Percent Growth Inhibition (GI)
# Protocol: as §1, §2
# CAKI-1 = assay: NCI growth inhibition (SRB) assay; format: cell-based; details: Homo sapiens, CAKI-1, Renal Cancer, single dose 10 µM, 48 h, read-out: Percent Growth Inhibition (GI)
# Protocol: as §1, §2
# FMS = target: T1, FMS (Homo sapiens, UniProt P07333); assay: In vitro kinase inhibition assay (HotSpot, Reaction Biology); format: biochemical
# T1 construct: purchased Reaction Biology Corp
# Protocol: The in vitro kinase inhibition assay was carried out by Reaction Biology Corp. (Reaction Biology Corp., Chester, PA, USA) Kinase HotSpot^SM service (http://www.reactionbiology.com, accessed on 15 January 2021), following the previously reported methods. (For details, see Supplementary Material).
# As mentioned in the introduction, to get insights about the kinase inhibition profile of the hybrid small molecule 5a, an in vitro screening over a panel of 14 cancer-related kinases was carried out. Accordingly, 10 µM concentrations of compound 5a were used in a kinase inhibition assay over various kinase groups and families in the presence of 10 µM ATP using HotSpotSM technology. To get a comprehensive picture of the inhibitory activities of the tested compound (5a) against the kinase panel, data are illustrated in Table 1. […] Compound 5a was also able to suppress the kinase activity of the epidermal growth factor receptor (EGFR), platelet-derived growth factor receptor-alpha (PDGFRα), and cyclin-dependent kinase 2 (CDK2) with modest inhibition values of 26.99 ± 0.9, 24.0 ± 0.4, and 20.1 ± 0.1%, respectively. […] Several studies have confirmed direct relationships between the most affected kinases (FMS, LCK, LYN, and DAPK1) and different human disorders including cancer.
# 5. Protocol of Kinase assay
# Kinases inhibitory activities were assessed by the HotSpot assay platform, which contained specific kinase/substrate pairs along with required cofactors. Base reaction buffer: 20 mM Hepes (pH 7.5), 10 mM MgCl2, 1 mM EGTA, 0.02% Brij35, 0.02 mg/ml BSA, 0.1 mM Na3VO4, 2 mM DTT, 1% DMSO. Testing compounds were dissolved in 100% DMSO to specific concentration. The serial dilution was conducted by Integra Viaflo Assist in DMSO. The reaction mixture containing the examined compound and 33P-ATP was incubated at room temperature for 2h and radioactivity was detected by filter-binding method. Kinase activity data were expressed as the percent remaining kinase activity in test samples compared to vehicle (dimethyl sulfoxide) reactions. IC50 values and curve fits were obtained using Prism (GraphPad Software).
# T1 sequence (P07333 20-972): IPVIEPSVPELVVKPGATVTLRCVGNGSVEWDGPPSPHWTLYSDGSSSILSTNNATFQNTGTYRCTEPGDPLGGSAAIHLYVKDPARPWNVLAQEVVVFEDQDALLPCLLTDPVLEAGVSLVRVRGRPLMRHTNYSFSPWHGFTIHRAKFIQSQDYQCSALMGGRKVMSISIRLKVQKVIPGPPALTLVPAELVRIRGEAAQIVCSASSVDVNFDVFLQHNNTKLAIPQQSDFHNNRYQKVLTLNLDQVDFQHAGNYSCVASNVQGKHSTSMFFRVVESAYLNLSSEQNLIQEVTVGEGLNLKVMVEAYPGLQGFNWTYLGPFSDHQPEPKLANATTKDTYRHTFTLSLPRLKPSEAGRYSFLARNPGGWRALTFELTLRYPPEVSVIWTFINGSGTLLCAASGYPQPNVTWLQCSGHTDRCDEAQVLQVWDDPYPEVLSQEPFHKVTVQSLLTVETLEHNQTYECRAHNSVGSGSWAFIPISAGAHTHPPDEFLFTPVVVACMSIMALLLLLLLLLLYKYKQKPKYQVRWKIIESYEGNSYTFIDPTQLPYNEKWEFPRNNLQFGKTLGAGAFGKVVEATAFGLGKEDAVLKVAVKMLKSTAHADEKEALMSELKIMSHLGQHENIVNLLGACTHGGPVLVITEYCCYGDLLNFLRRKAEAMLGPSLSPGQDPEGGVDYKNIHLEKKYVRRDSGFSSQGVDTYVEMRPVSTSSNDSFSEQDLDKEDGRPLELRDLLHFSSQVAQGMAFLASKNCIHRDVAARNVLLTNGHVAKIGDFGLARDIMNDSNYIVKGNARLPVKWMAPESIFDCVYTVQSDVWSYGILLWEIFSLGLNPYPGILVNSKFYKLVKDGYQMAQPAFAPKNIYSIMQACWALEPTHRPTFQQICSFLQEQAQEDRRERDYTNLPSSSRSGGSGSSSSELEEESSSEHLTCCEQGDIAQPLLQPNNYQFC
smiles,measurement,setting,value
"COc1ccc(Oc2nc(Nc3ccc(N4CCOCC4)cc3)ncc2NC(=O)c2cccc(SC)c2)cc1 [5g, N-(4-(4-Methoxyphenoxy)-2-((4-morpholinophenyl)amino)pyrimidin-5-yl)-3-(methylthio)benzamide]",inhibition at 10 µM,A498,18.9%
same,inhibition at 10 µM,MCF7,21.5%
same,inhibition at 10 µM,PC-3,24.9%
same,inhibition at 10 µM,IGROV1,33.9%
same,inhibition at 10 µM,KM12,20.2%
same,inhibition at 10 µM,SF-539,21.1%
same,inhibition at 10 µM,HL-60(TB),13.9%
same,inhibition at 10 µM,786-0,25%
same,inhibition at 10 µM,K-562,29.1%
same,inhibition at 10 µM,ACHN,21.4%
same,inhibition at 10 µM,RPMI-8226,20.5%
same,inhibition at 10 µM,SNB-75,21.5%
same,inhibition at 10 µM,HS 578T,22.7%
same,inhibition at 10 µM,HT29,24.3%
same,inhibition at 10 µM,"SR; Homo sapiens, read-out: Percent Growth Inhibition (GI)",60%
same,Percent Growth Inhibition (GI),SR,60.5%
same,inhibition at 10 µM,T-47D,28.2%
same,inhibition at 10 µM,HCT-15,31.7%
same,inhibition at 10 µM,COLO 205,4.7%
same,inhibition at 10 µM,CAKI-1,29.4%
same,IC50,"FMS; 10-dose, 3-fold serial dilution starting at 100 μM",110 ± 8 nM
same,fold more potent than imatinib over FMS,FMS; from IC50 values,~ 9 fold and 9 fold
same,inhibition at 10 µM,"FMS; read-out: Percent Inhibition, FMS",90.6 ± 0.8%
